Consider two compounds from patent publication US20090093010A1, “Method of Detecting Kidney Dysfunction” (University of Manitoba, priority 2004, published 2009).

Common to all, as to assay type: biochemical, human
For assay [1], the system named is serine and/or cysteine proteinases cleaving Y63 and F62 of the β2-microglobulin long chain. The assay can be described thus: Inhibition of cleavage of Y63 and F62 on the long chain (I1-Y63) of cleaved β2-microglobulin. The following applies: occurs even at pH 6; EDTA 20 mmol/L. The source says: Further confirmed non-tryptic cleavage sites on the long chain occur at F62 and then at S61, resulting in three major forms of long chains with calculated molecular weights of 7358.19 Da (I1-Y63), 7195.01 Da (I1-F62) and 7047.83 Da (I1-S61) (see FIG. 25B). […] In addition, three cleavage sites on the long chain have been identified by μLC-MS/MS (F22, N24 and C25), however, the resulting fragments were not detectable by SELDI-TOF-MS.

Assay [2] deals with protease family responsible for β2-microglobulin cleavage in urine. Kind of assay: Determination of the protease family responsible for β2-microglobulin cleavage (urine spiked with intact β2-microglobulin and protease inhibitors, SELDI-TOF-MS). The following applies: urine at pH 5, intact β2-microglobulin 10 mg/L, 37° C.; pepstatin 14.5 μM, Complete-Mini (EDTA-free) 0.2 tablets/mL, EDTA 20 mM. Here is the method: These samples were then analysed by SELDI-TOF-MS immediately (column 1) and after 6 hours of incubation at 37° C. (column 2).
One mL of a urine sample from a healthy individual (total protein 110 mg/L, creatinine 18.9 mM, pH 5) and 1 mL of a urine sample from a patient with an acute clinical rejection episode showing the protein peak clusters (total protein 230 mg/L, creatinine 11.6 mM, pH 5) were incubated for 16 hours at 37° C. to degrade existing intact and cleaved β2-m. Four hundred μL of each sample were mixed with sodium acetate pH 5 (final concentration 166 mM) to ensure, stable pH and divided into four portions of 100 μL. Pepstatin (final concentration 14.5 μM), Complete-Mini (EDTA-free) (final concentration 0.2 tablets/mL), EDTA (final concentration 20 mM) or no protease inhibitors were added to each portion. Another 100 μL of each urine sample was brought to pH 6 by adding MES pH 6 (final concentration 166 mM). […] SELDI-TOF-MS analysis was performed immediately and after 1, 2, 4, 6 and 24 hours of incubation at 37° C.

Assay [3] has as its system aspartic proteinase(s) performing initial cleavage of intact urinary β2-microglobulin. Kind of assay: Inhibition of initial cleavage of intact urinary β2-microglobulin in patient urine at pH 4.5 (SELDI-TOF-MS). The settings on record: patient urine brought to pH 4.5. Here is the method:
Pepstatin is a well-established inhibitor of aspartic proteinases. […] Different proteinase-inhibitors were added (Pepstatin and Complete Mini EDTA-free, both from Roche, Switzerland).

Entries after “also recorded” stand apart in the source; their conditions may differ. Where a SMILES comes first, the peptide text is derived from it. [ ]: non-standard residue; d: D form. The star is where a group is joined. Sta = CC(C)C[C@H](N)[C@@H](O)CC(=O)O; Isovaleryl = CC(C)CC(=O)*

For the compound `O=C(O)CN(CCN(CC(=O)O)CC(=O)O)CC(=O)O` [EDTA], the “Inhibition of the cleavage of the two amino acids Y63 and F62 on the long chain” value in assay [1] was “not”. Also, the “Inhibition of cleavage of intact β2-microglobulin” value in assay [2] is given as “not”.

In the case of `CC(C)CC(=O)N[C@H](C(=O)N[C@H](C(=O)N[C@@H](CC(C)C)[C@@H](O)CC(=O)N[C@@H](C)C(=O)N[C@@H](CC(C)C)[C@@H](O)CC(=O)O)C(C)C)C(C)C` [Pepstatin] (Isovaleryl-VV[Sta]A[Sta]-OH), the “Inhibition of the cleavage of the two amino acids Y63 and F62 on the long chain” value in assay [1] was “not”. Moreover, in assay [3], the “Detectability of the intact form of β2-microglobulin after 6 to 24 hours in urine spiked with proteinase inhibitor” value was “still detectable in unchanged intensity; also recorded: can be inhibited”. In addition, in assay [2], the “Inhibition of cleavage of intact β2-microglobulin” value is listed as “could prevent β2-microglobulin cleavages; also recorded: could be inhibited; also recorded: could inhibit β2-microglobulin cleavage”.
